A value given as a limit tells only on which side of the number the result lay.

In this assay the target is neurotensin receptor 1 (NTR1) (Homo sapiens (Human), UniProt P30989). Put plainly: NTR1 dose response, high-content imaging beta-arrestin-GFP assay in NTR1-U2OS cells. Format: cell-based. To be noted: read-out: EC50.
Chain of neurotensin receptor 1 (NTR1) (P30989 whole entry, species assumed): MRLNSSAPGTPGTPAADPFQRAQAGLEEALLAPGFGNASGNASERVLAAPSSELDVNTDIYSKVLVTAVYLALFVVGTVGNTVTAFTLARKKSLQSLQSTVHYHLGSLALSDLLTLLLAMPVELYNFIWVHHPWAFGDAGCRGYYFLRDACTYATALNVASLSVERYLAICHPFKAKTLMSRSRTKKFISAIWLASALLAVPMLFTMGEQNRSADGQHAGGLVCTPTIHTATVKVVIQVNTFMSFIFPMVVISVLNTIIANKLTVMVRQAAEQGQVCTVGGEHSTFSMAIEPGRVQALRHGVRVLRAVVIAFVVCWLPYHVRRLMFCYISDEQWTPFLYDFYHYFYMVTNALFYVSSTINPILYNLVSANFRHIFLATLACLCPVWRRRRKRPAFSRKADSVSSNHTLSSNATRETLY
Regarding `COc1cc(F)ccc1C1CCN(c2nc(C3CC3)nc3ccc(N(C)CCO)cc23)CC1` [Example 108, 2-({2-cyclopropyl-4-[4-(4-fluoro-2-methoxy-phenyl)-piperidin-1-yl]-quinazolin-6-yl}-methyl-amino)-ethanol], the EC50 was in the range of 0.5 to 2 µM. Under `COc1ccc(F)cc1C1CCN(c2nc(C3CC3)nc3ccc(N(C)CCO)cc23)CC1` [Example 109, 2-({2-cyclopropyl-4-[4-(5-fluoro-2-methoxy-phenyl)-piperidin-1-yl]-quinazolin-6-yl}-methyl-amino)-ethanol] stands 0.5 to 2 µM.

In the case of `COc1cc(F)ccc1C1CCN(c2nc(C3CC3)nc3cc(F)c(N(C)CCO)cc23)CC1` [Example 110, 2-({2-cyclopropyl-7-fluoro-4-[4-(4-fluoro-2-methoxy-phenyl)-piperidin-1-yl]-quinazolin-6-yl}-methyl-amino)-ethanol], the EC50 lay within 0.5 to 2 µM. With `COc1ccc(F)cc1C1CCN(c2nc(C3CC3)nc3cc(F)c(N(C)CCO)cc23)CC1` [Example 111, 2-({2-cyclopropyl-7-fluoro-4-[4-(5-fluoro-2-methoxy-phenyl)-piperidin-1-yl]-quinazolin-6-yl}-methyl-amino)-ethanol], the half-maximal effective concentration (EC50) fell in the range of 0.5 to 2 µM. Under `COc1cc(F)ccc1C1CCN(c2nc(C3CC3)nc3cc(Cl)c(N(C)CCO)cc23)CC1` [Example 112, 2-({7-chloro-2-cyclopropyl-4-[4-(4-fluoro-2-methoxy-phenyl)-piperidin-1-yl]-quinazolin-6-yl}-methyl-amino)-ethanol] stands more than 10 µM; under `COc1ccc(F)cc1C1CCN(c2nc(C3CC3)nc3cc(Cl)c(N(C)CCO)cc23)CC1` [Example 113, 2-({7-chloro-2-cyclopropyl-4-[4-(5-fluoro-2-methoxy-phenyl)-piperidin-1-yl]-quinazolin-6-yl}-methyl-amino)-ethanol], 2 to 10 µM; under `COc1cc(F)ccc1C1CCN(c2nc(C3CC3)nc3cc(C)c(N(C)CCO)cc23)CC1` [Example 114, 2-({2-cyclopropyl-4-[4-(4-fluoro-2-methoxy-phenyl)-piperidin-1-yl]-7-methyl-quinazolin-6-yl}-methyl-amino)-ethanol], 2 to 10 µM. In the case of `COc1ccc(F)cc1C1CCN(c2nc(C3CC3)nc3cc(C)c(N(C)CCO)cc23)CC1` [Example 115, 2-({2-cyclopropyl-4-[4-(5-fluoro-2-methoxy-phenyl)-piperidin-1-yl]-7-methyl-quinazolin-6-yl}-methyl-amino)-ethanol], the EC50 is 2 to 10 µM.

In the case of `Cc1cc2nc(C3CC3)nc(N3CCC(c4ccccc4N(C)C)CC3)c2cc1N(C)CCO` [Example 116, 2-({2-cyclopropyl-4-[4-(2-dimethylamino-phenyl)-piperidin-1-yl]-7-methyl-quinazolin-6-yl}-methyl-amino)-ethanol], the EC50 fell in the range of 0.5 to 2 µM. With `COc1ccccc1C1CCN(c2nc(C3CC3)nc3cc(C)c(N(C)CCO)cc23)CC1` [Example 117, 2-({2-cyclopropyl-4-[4-(2-methoxy-phenyl)-piperidin-1-yl]-7-methyl-quinazolin-6-yl}-methyl-amino)-ethanol] the figure was less than 0.5 µM.

For the compound `CN(C)c1ccccc1C1CCN(c2nc(C3CC3)nc3cc(Cl)c(N(C)CCO)cc23)CC1` [Example 118, 2-({7-chloro-2-cyclopropyl-4-[4-(2-dimethylamino-phenyl)-piperidin-1-yl]-quinazolin-6-yl}-methyl-amino)-ethanol], the EC50 is 2 to 10 µM. With `CN(CCO)c1cc2c(N3CCC(c4ccccc4N4CCC4)CC3)nc(C3CC3)nc2cc1Cl` [Example 119, 2-({4-[4-(2-azetidin-1-yl-phenyl)-piperidin-1-yl]-7-chloro-2-cyclopropyl-quinazolin-6-yl}-methyl-amino)-ethanol] the figure was 2 to 10 µM; with `CN(C)c1ccccc1C1CCN(c2nc(C3CC3)nc3cc(F)c(N(C)CCO)cc23)CC1` [Example 120, 2-({2-cyclopropyl-4-[4-(2-dimethylamino-phenyl)-piperidin-1-yl]-7-fluoro-quinazolin-6-yl}-methyl-amino)-ethanol], less than 0.5 µM. With `Cc1cc2nc(C3CC3)nc(N3CCC(c4ccccc4N4CCC4)CC3)c2cc1N(C)CCO` [Example 121, 2-({4-[4-(2-azetidin-1-yl-phenyl)-piperidin-1-yl]-2-cyclopropyl-7-methyl-quinazolin-6-yl}-methyl-amino)-ethanol] the figure was 0.5 to 2 µM; with `CCCN(C)c1cc2c(N3CCC(c4ccccc4OC)CC3)nc(C3CC3)nc2cc1C` [Example 122, {2-cyclopropyl-4-[4-(2-methoxy-phenyl)-piperidin-1-yl]-7-methyl-quinazolin-6-yl}-methyl-propyl-amine], 0.5 to 2 µM; with `CCCN(C)c1cc2c(N3CCC(c4cc(F)ccc4OC)CC3)nc(C3CC3)nc2cc1C` [Example 123, {2-cyclopropyl-4-[4-(5-fluoro-2-methoxy-phenyl)-piperidin-1-yl]-7-methyl-quinazolin-6-yl}-methyl-propyl-amine], more than 10 µM. With `COc1ccccc1C1CCN(c2nc(C3CC3)nc3c(C)cc(N(C)CCO)cc23)CC1` [Example 125, 2-({2-cyclopropyl-4-[4-(2-methoxy-phenyl)-piperidin-1-yl]-8-methyl-quinazolin-6-yl}-methyl-amino)-ethanol] the figure was less than 0.5 µM; with `COc1ccccc1C1CCN(c2nc(C3CC3)nc3ccc(N(C)CCO)c(C)c23)CC1` [Example 126, 2-({2-cyclopropyl-4-[4-(2-methoxy-phenyl)-piperidin-1-yl]-5-methyl-quinazolin-6-yl}-methyl-amino)-ethanol], 0.5 to 2 µM. As to `CCCN(C)c1cccc2c(N3CCC(c4ccccc4OC)CC3)nc(C3CC3)nc12` [Example 128, {2-cyclopropyl-4-[4-(2-methoxy-phenyl)-piperidin-1-yl]-quinazolin-8-yl}-methyl-propyl-amine], the EC50 is more than 10 µM. Under `COc1ccccc1C1CCN(c2nc(C3CC3)nc3c(N(C)CCN4CCOCC4)cccc23)CC1` [Example 129, {2-cyclopropyl-4-[4-(2-methoxy-phenyl)-piperidin-1-yl]-quinazolin-8-yl}-methyl-(2-morpholin-4-yl-ethyl)-amine] stands more than 10 µM; under `COc1ccccc1C1CCN(c2nc(C3CC3)nc3c(Cl)cc(N(C)CCO)cc23)CC1` [Example 130, 2-({8-chloro-2-cyclopropyl-4-[4-(2-methoxy-phenyl)-piperidin-1-yl]-quinazolin-6-yl}-methyl-amino)-ethanol], less than 0.5 µM.

In the case of `CCCN(C)c1cccc2nc(C3CC3)nc(N3CCC(c4ccccc4OC)CC3)c12` [Example 131, {2-cyclopropyl-4-[4-(2-methoxy-phenyl)-piperidin-1-yl]-quinazolin-5-yl}-methyl-propyl-amine], the 50% effective concentration (EC50) was 2 to 10 µM.

Turning to `COc1ccccc1C1CCN(c2nc(C3CC3)nc3ccc(N(C)CCO)c(F)c23)CC1` [Example 132, 2-((2-cyclopropyl-5-fluoro-4-(4-(2-methoxyphenyl)piperidin-1-yl)quinazolin-6-yl)(methyl)amino)ethanol], the half-maximal effective concentration (EC50) fell in the range of 0.5 to 2 µM. Under `COc1ccccc1C1CCN(c2nc(C3CC3)nc3c(F)cc(N(C)CCO)cc23)CC1` [Example 133, 2-((2-cyclopropyl-8-fluoro-4-(4-(2-methoxyphenyl)piperidin-1-yl)quinazolin-6-yl)(methyl)amino)ethanol] stands less than 0.5 µM; under `COc1ccccc1C1CCN(c2nc(C3CC3)nc3cnc(N(C)CCN4CCOCC4)cc23)CC1` [Example 134, 2-cyclopropyl-4-(4-(2-methoxyphenyl)piperidin-1-yl)-N-methyl-N-(2-morpholinoethyl)pyrido[3,4-d]pyrimidin-6-amine], 0.5 to 2 µM; under `CCCN(C)c1ccc2c(N3CCC(c4ccccc4OC)CC3)nc(C3CC3)nc2c1` [Example 135, 2-cyclopropyl-4-(4-(2-methoxyphenyl)piperidin-1-yl)-N-methyl-N-propylquinazolin-7-amine], more than 10 µM. As for `COc1ccccc1C1CCN(c2nc(C#CC3CC3)nc3ccc(N(C)CCO)cc23)CC1` [Example 136, 2-((2-(cyclopropylethynyl)-4-(4-(2-methoxyphenyl)piperidin-1-yl)quinazolin-6-yl)(methyl)amino)ethanol], the EC50 fell in the range of 2 to 10 µM. Under `COc1ccccc1C1CCN(c2nc(C3CC3)nc3cnc(N(C)CCO)cc23)CC1` [Example 137, 2-({2-cyclopropyl-4-[4-(2-methoxy-phenyl)-piperidin-1-yl]-pyrido[3,4-d]pyrimidin-6-yl}-methyl-amino)-ethanol] stands less than 0.5 µM; under `COc1ccsc1C1CCN(c2nc(C3CC3)nc3ccc(N(C)CCO)cc23)CC1` [Example 138, 2-((2-cyclopropyl-4-(4-(3-methoxythiophen-2-yl)piperidin-1-yl)quinazolin-6-yl)(methyl)amino)ethanol], 0.5 to 2 µM. With `CN(CCO)c1ccc2nc(C3(F)CC3)nc(N3CCC(C4CCCCC4)CC3)c2c1` [Example 139, 2-((4-(4-cyclohexylpiperidin-1-yl)-2-(1-fluorocyclopropyl)quinazolin-6-yl)(methyl)amino)ethanol] the figure was more than 10 µM; with `CN(CCO)c1ccc2nc(C3CC3)nc(N3CCN(C4CCCC4O)CC3)c2c1` (stereo not shown) [Example 140, 2-(4-{2-cyclopropyl-6-[(2-hydroxy-ethyl)-methyl-amino]-quinazolin-4-yl}-piperazin-1-yl)-cyclopentanol], more than 10 µM; with `CCCN(C)c1ccc2nc(C3CC3)nc(N3CCN(C4CCCC4O)CC3)c2c1` (stereo not shown) [Example 141, 2-{4-[2-cyclopropyl-6-(methyl-propyl-amino)-quinazolin-4-yl]-piperazin-1-yl}-cyclopentanol], more than 10 µM. Regarding `CN(CCN1CCOCC1)c1ccc2nc(C3CC3)nc(N3CCN(C4CCCC4O)CC3)c2c1` (stereo not shown) [Example 142, 2-(4-{2-cyclopropyl-6-[methyl-(2-morpholin-4-yl-ethyl)-amino]-quinazolin-4-yl}-piperazin-1-yl)-cyclopentanol], the concentration giving a half-maximal response (EC50) is more than 10 µM.

In the case of `COc1ccccc1C1CCN(c2nc(-c3ccccc3)nc3ccc(N(C)C)cc23)CC1` [Example 143], the EC50 was more than 10 µM.

A word on the EC50: it is the concentration that produces a half-maximal response.

Values taken from patent publication US10118902B2 (Sanford Burnham Prebys Medical Discovery Institute, priority 2014, dated 2018).
